# According to patent US12077503B2, “Substituted cyclic amides and their use as herbicides” (FMC CORPORATION, priority 2015, dated 2024):
# Read-outs that look alike come from different tables or passages of the source.
# Columns and labels:
# Test in all cases: Test A preemergence
# Format in all cases: in vivo
# [1] = system: ryegrass, Italian (Italian ryegrass, Lolium multiflorum); details: Lolium multiflorum, pre-emergence, 240 h; for pest or weed control at 125 g/ha: 125 g ai/ha; for pest or weed control at 500 g/ha: 500 g ai/ha
# Summary of the method: (§1)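 Seeds sprayed preemergence with a directed soil spray, or plants at 2 to 10 cm height and one- to two-leaf stage sprayed postemergence, with test chemicals in a non-phytotoxic solvent mixture containing surfactant, in loam soil–sand blend. Injury rated visually against untreated controls after about 10 d in greenhouse, 0 (no effect) to 100 (complete control).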
# [2] = system: giant foxtail (Setaria faberii); details: Setaria faberi, pre-emergence, 240 h; for pest or weed control at 125 g/ha: 125 g ai/ha; for pest or weed control at 500 g/ha: 500 g ai/ha
# Summary of the method: as §1
# [3] = system: ragweed (common ragweed, Ambrosia elatior); details: Ambrosia artemisiifolia, pre-emergence, 240 h; for pest or weed control at 125 g/ha: 125 g ai/ha; for pest or weed control at 500 g/ha: 500 g ai/ha
# Summary of the method: as §1
# Kochia (Kochia scoparia) = details: Bassia scoparia, pre-emergence, 240 h; for pest or weed control at 125 g/ha: 125 g ai/ha; for pest or weed control at 500 g/ha: 500 g ai/ha
# Summary of the method: as §1
# [4] = system: pigweed (Amaranthus retroflexus); details: Amaranthus retroflexus, pre-emergence, 240 h; for pest or weed control at 125 g/ha: 125 g ai/ha; for pest or weed control at 500 g/ha: 500 g ai/ha
# [5] = system: barnyardgrass (Echinochloa crus-galli); details: Echinochloa crus-galli, pre-emergence, 240 h; for pest or weed control at 125 g/ha: 125 g ai/ha; for pest or weed control at 500 g/ha: 500 g ai/ha
# Summary of the method: as §1
# [6] = preemergence, visual rating after approx. 10 d, 0 to 100 scale where 0 is no effect and 100 is complete control, read-out: Plant response rating, Ryegrass, Italian
# [7] = preemergence, visual rating after approx. 10 d, 0 to 100 scale where 0 is no effect and 100 is complete control, read-out: Plant response rating, Foxtail, Giant
# [8] = preemergence, visual rating after approx. 10 d, 0 to 100 scale where 0 is no effect and 100 is complete control, read-out: Plant response rating, Ragweed
# [9] = preemergence, visual rating after approx. 10 d, 0 to 100 scale where 0 is no effect and 100 is complete control, read-out: Plant response rating, Kochia
# [10] = preemergence, visual rating after approx. 10 d, 0 to 100 scale where 0 is no effect and 100 is complete control, read-out: Plant response rating, Pigweed
# [11] = preemergence, visual rating after approx. 10 d, 0 to 100 scale where 0 is no effect and 100 is complete control, read-out: Plant response rating, Barnyardgrass
# [12] = Preemergence, visual injury vs untreated controls after approximately 10 d, read-out: Ryegrass, Italian plant response rating (0 to 100 scale where 0 is no effect and 100 is complete control)
# [13] = Preemergence, visual injury vs untreated controls after approximately 10 d, read-out: Foxtail, Giant plant response rating (0 to 100 scale where 0 is no effect and 100 is complete control)
# [14] = Preemergence, visual injury vs untreated controls after approximately 10 d, read-out: Ragweed plant response rating (0 to 100 scale where 0 is no effect and 100 is complete control)
# [15] = Preemergence, visual injury vs untreated controls after approximately 10 d, read-out: Kochia plant response rating (0 to 100 scale where 0 is no effect and 100 is complete control)
# [16] = Preemergence, visual injury vs untreated controls after approximately 10 d, read-out: Pigweed plant response rating (0 to 100 scale where 0 is no effect and 100 is complete control)
# [17] = Preemergence, visual injury vs untreated controls after approximately 10 d, read-out: Barnyardgrass plant response rating (0 to 100 scale where 0 is no effect and 100 is complete control)
# [18] = preemergence, 0 to 100 scale, 0 = no effect, 100 = complete control, read-out: Plant response rating, Ryegrass, Italian
# [19] = preemergence, 0 to 100 scale, 0 = no effect, 100 = complete control, read-out: Plant response rating, Foxtail, Giant
# [20] = preemergence, 0 to 100 scale, 0 = no effect, 100 = complete control, read-out: Plant response rating, Ragweed
# [21] = preemergence, 0 to 100 scale, 0 = no effect, 100 = complete control, read-out: Plant response rating, Kochia
# [22] = preemergence, 0 to 100 scale, 0 = no effect, 100 = complete control, read-out: Plant response rating, Pigweed
# [23] = preemergence, 0 to 100 scale, 0 = no effect, 100 = complete control, read-out: Plant response rating, Barnyardgrass
# [24] = preemergence, 0 to 100 scale (0 no effect, 100 complete control), read-out: Plant response rating, Ryegrass, Italian
# [25] = Preemergence, 0 to 100 scale (0 no effect, 100 complete control), read-out: Plant response rating, Ryegrass, Italian
# [26] = preemergence, 0 to 100 scale (0 no effect, 100 complete control), read-out: Plant response rating, Foxtail, Giant
# [27] = Preemergence, 0 to 100 scale (0 no effect, 100 complete control), read-out: Plant response rating, Foxtail, Giant
# [28] = preemergence, 0 to 100 scale (0 no effect, 100 complete control), read-out: Plant response rating, Ragweed
# [29] = Preemergence, 0 to 100 scale (0 no effect, 100 complete control), read-out: Plant response rating, Ragweed
# [30] = preemergence, 0 to 100 scale (0 no effect, 100 complete control), read-out: Plant response rating, Kochia
# [31] = Preemergence, 0 to 100 scale (0 no effect, 100 complete control), read-out: Plant response rating, Kochia
# [32] = preemergence, 0 to 100 scale (0 no effect, 100 complete control), read-out: Plant response rating, Pigweed
# [33] = Preemergence, 0 to 100 scale (0 no effect, 100 complete control), read-out: Plant response rating, Pigweed
# [34] = preemergence, 0 to 100 scale (0 no effect, 100 complete control), read-out: Plant response rating, Barnyardgrass
# [35] = Preemergence, 0 to 100 scale (0 no effect, 100 complete control), read-out: Plant response rating, Barnyardgrass
smiles,measurement,setting,value
COc1cc([C@H]2CN(C)C(=O)[C@@H]2C(=O)Nc2cccc(F)c2F)ccc1C(F)(F)F [Compound 770],pest or weed control at 125 g/ha,[1]; [6],0%
same,pest or weed control at 31 g/ha,"[1]; Preemergence, 31 g ai/ha, 0 to 100 scale (0 no effect, 100 complete control), read-out: Plant response rating, Ryegrass, Italian",0%
same,pest or weed control at 125 g/ha,[2]; [7],90%
same,pest or weed control at 31 g/ha,"[2]; Preemergence, 31 g ai/ha, 0 to 100 scale (0 no effect, 100 complete control), read-out: Plant response rating, Foxtail, Giant",90%
same,pest or weed control at 125 g/ha,[3]; [8],0%
same,pest or weed control at 31 g/ha,"[3]; Preemergence, 31 g ai/ha, 0 to 100 scale (0 no effect, 100 complete control), read-out: Plant response rating, Ragweed",0%
same,pest or weed control at 125 g/ha,Kochia (Kochia scoparia); [9],0%
same,pest or weed control at 31 g/ha,"Kochia (Kochia scoparia); Preemergence, 31 g ai/ha, 0 to 100 scale (0 no effect, 100 complete control), read-out: Plant response rating, Kochia",0%
same,pest or weed control at 125 g/ha,[4]; [10],90%
same,pest or weed control at 31 g/ha,"[4]; Preemergence, 31 g ai/ha, 0 to 100 scale (0 no effect, 100 complete control), read-out: Plant response rating, Pigweed",40%
same,pest or weed control at 125 g/ha,[5]; [11],90%
same,pest or weed control at 31 g/ha,"[5]; Preemergence, 31 g ai/ha, 0 to 100 scale (0 no effect, 100 complete control), read-out: Plant response rating, Barnyardgrass",70%
CC(F)(F)c1cccc([C@H]2CNC(=O)[C@@H]2C(=O)Nc2ccccc2S(C)(=O)=O)c1 [Compound 780],pest or weed control at 125 g/ha,[1]; [6],0%
same,pest or weed control at 500 g/ha,[1]; [12],20%
same,pest or weed control at 125 g/ha,[2]; [7],90%
same,pest or weed control at 500 g/ha,[2]; [13],90%
same,pest or weed control at 125 g/ha,[3]; [8],40%
same,pest or weed control at 500 g/ha,[3]; [14],70%
same,pest or weed control at 125 g/ha,Kochia (Kochia scoparia); [9],40%
same,pest or weed control at 500 g/ha,Kochia (Kochia scoparia); [15],80%
same,pest or weed control at 125 g/ha,[4]; [10],0%
same,pest or weed control at 500 g/ha,[4]; [16],50%
same,pest or weed control at 125 g/ha,[5]; [11],80%
same,pest or weed control at 500 g/ha,[5]; [17],90%
Cc1cc([C@H]2CNC(=O)[C@@H]2C(=O)Nc2ccccc2F)ccc1Cl [Compound 789],pest or weed control at 125 g/ha,[1]; [6],0%
same,pest or weed control at 500 g/ha,[1]; [12],0%
same,pest or weed control at 125 g/ha,[2]; [7],60%
same,pest or weed control at 500 g/ha,[2]; [13],90%
same,pest or weed control at 125 g/ha,[3]; [8],0%
same,pest or weed control at 500 g/ha,[3]; [14],0%
same,pest or weed control at 500 g/ha,Kochia (Kochia scoparia); [15],30%
same,pest or weed control at 125 g/ha,[4]; [10],0%
same,pest or weed control at 500 g/ha,[4]; [16],20%
same,pest or weed control at 125 g/ha,[5]; [11],90%
same,pest or weed control at 500 g/ha,[5]; [17],90%
Cc1cc([C@H]2CNC(=O)[C@@H]2C(=O)Nc2ccc(F)cc2F)ccc1F [Compound 718],pest or weed control at 125 g/ha,[1]; [6],30%
same,pest or weed control at 500 g/ha,[1]; [18],30%
same,pest or weed control at 125 g/ha,[2]; [7],70%
same,pest or weed control at 500 g/ha,[2]; [19],90%
same,pest or weed control at 125 g/ha,[3]; [8],0%
same,pest or weed control at 500 g/ha,[3]; [20],40%
same,pest or weed control at 125 g/ha,Kochia (Kochia scoparia); [9],0%
same,pest or weed control at 500 g/ha,Kochia (Kochia scoparia); [21],60%
same,pest or weed control at 125 g/ha,[4]; [10],0%
same,pest or weed control at 500 g/ha,[4]; [22],0%
same,pest or weed control at 125 g/ha,[5]; [11],90%
same,pest or weed control at 500 g/ha,[5]; [23],90%
Cc1c(F)ccc([C@H]2CNC(=O)[C@@H]2C(=O)Nc2cccc(F)c2F)c1F [Compound 1327],pest or weed control at 500 g/ha,[1]; [24],20%
same,pest or weed control at 125 g/ha,[1]; [25],20%
same,pest or weed control at 500 g/ha,[2]; [26],90%
same,pest or weed control at 125 g/ha,[2]; [27],70%
same,pest or weed control at 500 g/ha,[3]; [28],0%
same,pest or weed control at 125 g/ha,[3]; [29],0%
same,pest or weed control at 500 g/ha,Kochia (Kochia scoparia); [30],90%
same,pest or weed control at 125 g/ha,Kochia (Kochia scoparia); [31],100%
same,pest or weed control at 500 g/ha,[4]; [32],30%
same,pest or weed control at 125 g/ha,[4]; [33],0%
same,pest or weed control at 500 g/ha,[5]; [34],90%
same,pest or weed control at 125 g/ha,[5]; [35],90%
Cc1c(F)ccc([C@H]2CNC(=O)[C@@H]2C(=O)Nc2ccc(F)cc2F)c1F [Compound 1328],pest or weed control at 500 g/ha,[1]; [24],30%
same,pest or weed control at 125 g/ha,[1]; [25],0%
same,pest or weed control at 500 g/ha,[2]; [26],90%
same,pest or weed control at 125 g/ha,[2]; [27],50%
same,pest or weed control at 500 g/ha,[3]; [28],0%
same,pest or weed control at 125 g/ha,[3]; [29],0%
same,pest or weed control at 500 g/ha,Kochia (Kochia scoparia); [30],50%
same,pest or weed control at 125 g/ha,Kochia (Kochia scoparia); [31],30%
same,pest or weed control at 500 g/ha,[4]; [32],0%
same,pest or weed control at 125 g/ha,[4]; [33],0%
same,pest or weed control at 500 g/ha,[5]; [34],90%
same,pest or weed control at 125 g/ha,[5]; [35],70%
CS(=O)(=O)c1ccccc1NC(=O)[C@H]1C(=O)NC[C@@H]1c1cccc2c1OC(F)(F)O2 [Compound 753],pest or weed control at 125 g/ha,[1]; [6],0%
same,pest or weed control at 500 g/ha,[1]; [18],20%
same,pest or weed control at 125 g/ha,[2]; [7],70%
same,pest or weed control at 500 g/ha,[2]; [19],90%
same,pest or weed control at 125 g/ha,[3]; [8],0%
same,pest or weed control at 500 g/ha,[3]; [20],0%
same,pest or weed control at 125 g/ha,Kochia (Kochia scoparia); [9],20%
same,pest or weed control at 500 g/ha,Kochia (Kochia scoparia); [21],20%
same,pest or weed control at 125 g/ha,[4]; [10],0%
same,pest or weed control at 500 g/ha,[4]; [22],0%
same,pest or weed control at 125 g/ha,[5]; [11],70%
same,pest or weed control at 500 g/ha,[5]; [23],100%
